What was measured:
heptaarginine = assay: ITC, POM into heptaarginine; type: binding; conditions: 10 mM Tris; for Ka/ 107, heptaarginine: pH 7.4, 298.15 K, value is Ka divided by 10^7, duplicates; for Ka, heptaarginine (Figure 2c,d): pH 7.4, POM/oligoarginine 100/8 and 200/10 µM
Experimental: (§1) All experiments were performed with a VP‐ITC MicroCalorimeter from MicroCal, Int,. at atmospheric pressure and 298.15 K. Solutions were degassed and thermostatic prior to the titration experiments in a ThermoVac accessory. A constant volume of POM ([PVW11]^4‒ or [SiMoW11]^4‒) (10 µL per injection) was injected into the oligopeptide solution (heptaArg, protamine, polyArg or heptaLys) in 10 mM Tris, pH 7.4 to determine the apparent binding affinity of [PVW11]^4‒ and [SiMoW11]^4‒ with the oligopeptides. Dilution heats were determined by titration of the POM into buffer and subtracted from the reaction heat. The neat reaction heat was fitted with Origin 7.0 software by using the “one‐set‐of‐sites” model to obtain the complex stability constant (K a) and molar reaction enthalpy (∆H°). The free energy (∆G°) and entropy changes (∆S°) were obtained according to the relation: ∆G° = −RTlnK a = ∆H°−T∆S°.
(§2) 4. Supramolecular interactions
(§3) Figure S10. Microcalorimetric titrations in 10 mM Tris, pH 7.4: Raw ITC data (top) for the sequential injections of POM solution into an oligoarginine solution, and apparent reaction heats (bottom) obtained from the integration of the calorimetric traces. […]
(§4) values and ± 0.5 kcal mol‒1 for ΔH and TΔS (duplicate measurements). Note that none of these interactions lead to any precipitation or aggregates, confirmed by the absence of any detectable signal by DLS. […]
Figure S11. Microcalorimetric titrations in 10 mM Tris, pH 7.4: Raw ITC data (top) for the sequential injections of POM solution into a heptalysine solution, and apparent reaction heats (bottom) obtained from the integration of the calorimetric traces. POM/heptalysine concentrations in µM: a, 200/8 and b, 150/10. Error data is 5% for the n values and ± 0.5 kcal mol‒1 for ΔH and TΔS (duplicate […]
Table S6. Binding constants (Ka in M‒1) and thermodinamic data (in kcal mol‒1) measured for the complex formation between the stable and active POMs and oligoarginines in 10 mM Tris, pH 7.4. a) […]
a) Error data is 5% for the n values and ± 0.5 kcal mol‒1 for ΔH and TΔS (duplicate measurements).

polyarginine = assay: ITC, POM into polyarginine; type: binding; conditions: 10 mM Tris, pH 7.4, value is Ka divided by 10^7
Experimental: as §1, §2, §3, §4

protamine = assay: ITC, POM into protamine; type: binding; conditions: 10 mM Tris, pH 7.4, value is Ka divided by 10^7
Experimental: as §1, §2, §3, §4

[1] = CF transport assay in anionic vesicles; type: biochemical; conditions: heptaArg cargo; for heptaArg Ymax, anionic vesicles / EC50: CF assay, pH 7.4; for heptaArg Ymax, anionic vesicles: DMPE/DPPG/CHOL 1/2/1 (anionic), 13 µM phospholipids, 10 mM Tris, 140 mM NaCl; for EC50 / heptaArg E, anionic vesicles: DMPE/DPPG/CHOL (anionic); for heptaArg E, anionic vesicles: f = 20.6
Experimental: To better mimic biological membranes, which contain negatively charged components and cholesterol, equivalent transport experiments were performed in anionic liposomes^[ [19], [20] ^] with the prototypal POM carriers, [PVW11]^4‒ and [SiMoW11]^4‒ . […] This encouraged us to transfer the experiments to CHO‐K1 (Chinese hamster ovary) cells, after we had confirmed sufficient stability of the most promising POM carriers, [PVW11]^4‒ and [SiMoW11]^4‒ , in the cellular nutrient mixture (F‐12 Ham's medium, Figures S26–S28C, Supporting Information).
Anionic vesicles were prepared analogously except for the lipid composition, DMPE/DPPG/CHOL (4.4/10.4/2.6 mg, 1/2/1 molar ratio, DMPE: 1,2‐dimyristoyl‐sn‐glycero‐3‐phosphoethanolamine; DPPG: 1,2‐dipalmitoyl‐sn‐glycero‐3‐phospho‐(1´‐rac‐glycerol); CHOL: cholesterol) in a 1:1 mixture of CHCl3 and MeOH (1 mL), the hydration (60 min) and extrusion were performed at 55 °C, and the employed buffers were 100 mM CF, 10 mM Tris, pH 7.4 and 10 mM Tris, 140 mM NaCl, pH 7.4 for rehydration and elution, respectively.
Vesicles stock solutions (5–10 µL) were diluted with the corresponding buffer in a disposable plastic cuvette and gently stirred (total volume 2000 µL, final lipid concentration 13 µM). Carboxyfluorescein fluorescence was monitored at λ em = 517 nm (λ ex = 492 nm) as a function of time after addition of POMs at 60 s, analyte at 120 s and Triton X‐100 (24 µL 1.2% wt/vol) at 600 s to lyse the vesicles, for calibration. Fluorescence intensities were normalized to fractional emission as (1) It=It−I0/I∞−I0 where I 0 = I t before POM addition and […] after lysis. For Hill analysis, I t before lysis was defined as transport activity, Y, and plotted against POM concentration, c, and fitted to the Hill Equation (2), to afford the activity in absence of POM, Y 0, the maximal activity, Y max, the concentration needed to achieve 50% of maximal activity, EC 50, and the Hill coefficient, n (2) Y=Y0+Ymax−Y0/1+EC50/c^n […]
Figure S8. Heptaarginine transport through anionic vesicles[22-23][24] (DMPE/DPPG/CHOL, 1/2/1 molar ratio) facilitated by [PVW11]4‒ (a) and [SiMoW11]4‒ (c). Transport activity as function of [PVW11]4‒ (b) and [SiMoW11]4‒ (d) concentration, solid lines correspond to the resulting fit with the Hill equation.
Table S5. Membrane transport parameters of active POMs towards different analytes and different lipid composition. […]
a) 13 µM phospholipids. b) 10 µM cargo. c) Maximal activity; ±2% error (SD). d) Effective concentration to reach 50% activity of Ymax; 5 % error (SD). e) Activation efficiency E = Ymax (pEC50/f), were pEC50 is the negative logarithm of the EC50, and f a scaling factor set to 20.6 to allocate E between 0

[2] = U-tube transport experiment through CHCl3; conditions: CHCl3 bulk phase; CF 100, POM 50, heptaArg 10 µM; 24 h; fluorescence
Text: In the U‐tube experiments, the trans phase contained only buffer, and the cis phase is loaded with combinations of CF, carrier (POM), and cargo (heptaArg). Aliquots of the trans phase are taken and evaluated by fluorescence at different times. The trans phase is initially (t = 0) nonfluorescent, but the transport of CF from the cis phase through the chloroform barrier leads to fluorescence, signaling successful transport. […] This is consistent with translocation of a POM•heptaArg•CF complex through the organic phase, in support of the mechanism in Figure 1c.
The U‐tubes were house‐made, similar to those of Rebek^[ [82] ^] and Matile,^[ [54] ^] consisting in a small beaker with a central glass barrier, separating the two aqueous layers, cis ([…]) and trans (receiving phase), but allowing an interface chloroform layer below the cis and trans phases. 3 mL CHCl3 are placed into the U‐tube and 1 mL of the cis (combinations of carrier (POM), cargo (heptaArg) and CF in buffer) and trans (1 mL buffer) phases were added. The organic phase was stirred at 700 rpm at room temperature. Aliquots (25 µL) from the trans phase were taken at different times, 400 µL of buffer were added and measured by fluorescence.

Row | EC50 [1] [µM] | Substance | Ka/ 107, heptaarginine (heptaarginine) [M‒1] | Ka, heptaarginine (Figure 2c,d) (heptaarginine) [M⁻¹] | Ka/ 107, polyarginine (polyarginine) [M‒1] | Ka/ 107, protamine (protamine) [M‒1] | heptaArg Ymax, anionic vesicles [1] [%] | heptaArg E, anionic vesicles [1] | Carrier behaviour in U-tube (CF in trans phase) [2]
1 | 50 | K4[α‐P^VV^VW^VI 11O40]·4H2O [[PVW11]^4‒] | 5.7 | 5.7e+07 | 3.5 | 25 | 45 | 2.8 | act as “real” carriers
2 | 60 | K4[α‐Si^IVMo^VIW^VI 11O40]·24H2O [[SiMoW11]^4‒] | 0.6 | 6.3e+06 | 1.6 | 1.7 | 61 | 3.6 | act as “real” carriers
